Source: publication PMC5270475, “Structural Characterization and Ligand/Inhibitor Identification Provide Functional Insights into the Mycobacterium tuberculosis Cytochrome P450 CYP126A1” (The Journal of Biological Chemistry, 2016)

The compounds below were run against T1, CYP126A1 (Mycobacterium tuberculosis, UniProt P9WPN9) (assay: UV-visible absorbance titration (heme Soret shift)). Settings: read-out: Kd.
T1 construct: gene cyp126
Type: binding

T1 sequence (P9WPN9 whole entry): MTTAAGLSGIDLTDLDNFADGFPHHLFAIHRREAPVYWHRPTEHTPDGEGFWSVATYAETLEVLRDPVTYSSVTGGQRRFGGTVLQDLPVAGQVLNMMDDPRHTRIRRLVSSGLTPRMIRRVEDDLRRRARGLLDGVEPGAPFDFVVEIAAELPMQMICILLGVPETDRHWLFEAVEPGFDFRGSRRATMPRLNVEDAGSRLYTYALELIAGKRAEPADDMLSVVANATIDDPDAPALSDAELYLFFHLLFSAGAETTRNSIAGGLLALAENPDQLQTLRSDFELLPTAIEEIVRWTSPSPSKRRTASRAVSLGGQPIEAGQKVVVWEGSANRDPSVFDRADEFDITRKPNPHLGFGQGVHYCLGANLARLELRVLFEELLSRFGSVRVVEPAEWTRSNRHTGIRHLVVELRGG

| Compound | Kd [µM] |
| --- | --- |
| Cc1cccc(CSc2ncc(Cl)c(C(=O)Nc3nnc(C)s3)n2)c1 [compound 5, Compound 5] | 6.15 ± 0.31 |
| O=C(Nc1nc2ccc(F)cc2s1)c1nc(SCc2ccccc2F)ncc1Cl [compound 6, Compound 6] | 25.3 ± 0.5 |
| O=C1CCCC2Oc3c(cc(NS(=O)(=O)c4ccc([N+](=O)[O-])cc4)c4ccccc34)C12 (stereo not drawn) [compound 2, Compound 2] | 2.85 ± 0.15 |
| Cc1ccc(NC(=O)c2cccc3nc4ccccc4nc23)cc1 [compound 3, Compound 3] | 56.1 ± 2.2 |
| COc1ccc(-c2noc(CN(C(=O)Cc3ccc([N+](=O)[O-])cc3)C(C)C)n2)cc1 [compound 1, N-isopropyl-N-((3-(4-methoxyphenyl)-1,2,4-oxadiazol-5-yl)methyl)-2-(4-nitrophenyl)acetamide] | 18.3 ± 1.3 |
| O=C1CC(N2CCN(Cc3ccc4c(c3)OCO4)CC2)C(=O)N1Cc1ccc(Cl)cc1 (stereo not drawn) [compound 4, 3-(4-(benzo[d][1,3]dioxol-5-ylmethyl)piperazin-1-yl)-1-(4-chlorobenzyl)pyrrolidine-2,5-dione] | 65.2 ± 6.6 |
